Source: US20140315975A1, “APOPTOSIS-INDUCING AGENT” (NITTO DENKO CORPORATION, priority 2011, published 2014)

What was measured:
Assay type in all cases: cell-based
LC3 = test: Autophagy induction by LC3 western blotting; conditions: M7609 cells, western blot with anti-LC3 antibody (FIG. 8)
Description: Induction of autophagy in GST-π knockdown cells was further analyzed by a western blot analysis of LC3. GST-π knockdown cells obtained by the procedure of Example 1 (2) were plated on a cover slip placed in a 35 mm plastic tissue culture dish so as to give 1×10^5 cells/2 mL. After incubating for a predetermined time, a cell extract was collected and subjected to a western blot analysis. A reaction with a transfer membrane was carried out at 4° C. for 16 hours using anti-LC3B antibody (SIGMA) as a primary antibody. Detection of LC3 molecules was carried out using a chemoluminescent reagent after a reaction with HRP-labeled secondary antibody. Whether or not autophagy was induced was evaluated by a shift of LC3 from type I (18 kDa) to type II (16 kDa).

M7609 cells = test: Autophagy induction by LC3 immunofluorescence staining; conditions: 1 to 4 days after transfection (FIG. 10)
Description: Induction of autophagy by GST-π knockdown was analyzed by immunofluorescence staining with LC3, which is an autophagy-specific marker protein. GST-π knockdown cells obtained by the procedure of Example 1 (2) were plated on a cover slip placed in a 35 mm plastic tissue culture dish so as to give 1×10^5 cells/2 mL. After the medium was aspirated, 4% paraformaldehyde in PBS was added, and incubation was carried out at room temperature for 10 min., thus fixing the cells. Permeabilization of the cells was carried out using 0.5% Triton X-100 in PBS on ice for 5 min. After washing with cold PBS for 10 min., a reaction with anti-LC3B antibody (Invitrogen) diluted with 1% BSA containing PBS was carried out within a humidity chamber at 37° C. for 1 hour. A secondary antibody reaction was carried out using Alexa Fluor488-labeled rabbit antibody (Invitrogen) at 37° C. for 1 hour. Mounting on a slide glass was carried out using Prolong Gold antifade reagent with DAPI, and incubation was carried out at 4° C. for 16 hours. Washing after the antibody reaction was carried out three times using PBS at 37° C. for 5 min. Autophagy-positive cells at the time of examination with a fluorescence microscope were defined as cells having a spot-like LC3 signal present in the cytoplasm.

[1] = tested on: K-RAS mutation-positive colon carcinoma cell line M7609; test: Total cell count after siRNA transfection (hemocytometer); conditions: after culturing for 4 days, versus no suppression (FIG. 1b)
Description: K-RAS mutation-positive colon carcinoma cell line M7609 was cultured in 10% fetal bovine serum (FBS)-containing RPMI-1640 medium at 37° C. under an atmosphere containing 5% CO2. Furthermore, 100 U/mL penicillin and 100 μg/mL streptomycin were added as antibiotics to the medium.
(§1) On the day before transfection, M7609 cells were plated on a 100 mm plastic tissue culture dish using 10% FBS-containing RPMI-1640 medium containing no antibiotic so as to give 1×10^6 cells/10 mL. 600 pmol of GST-π siRNA (SEQ ID No: 1: […], siRNA ID#2385, Ambion) was added to 1 mL of Opti-MEM I Reduced Serum Medium (GIBCO) and mixed gently. […] On the 1st, 2nd, 3rd, and 4th days after transfection with GST-π siRNA, the number of cells was counted, and knockdown of GST-π was examined. Knockdown of GST-π was analyzed by a western blot method as described below.
Western blot analysis of GST-π knockdown was carried out using cells harvested at above-mentioned each point of time after transfection with GST-π siRNA. […] The cell extract thus obtained was subjected to quantitative protein analysis using a Micro BCA Protein Assay Kit (Thermo SCIENTIFIC) (GST-π siRNA transfectant: 4.35 μg/μL, Scramble siRNA transfectant: 4.56 μg/μL). […] A reaction with a chemiluminescent substrate was then carried out at room temperature for 1 min., and then this chemiluminescence was detected using an X-ray film. […]

GST-π = test: Western blot analysis of GST-π knockdown; conditions: M7609 cells
Description: as §1, with “gently. Subsequently, 35 μL of Lipofectamine RNAiMAX (Invitrogen) was diluted in 1 mL of Opti-MEM I Reduced Serum Medium and mixed gently. The diluted GST-π siRNA and the diluted Lipofectamine RNAiMAX were combined and gently mixed, and then incubated at room temperature for 10 min. During this time, the medium was replaced with 10 mL of Opti-MEM I Reduced Serum Medium. After the 10 min. incubation, the complex between GST-π siRNA and Lipofectamine RNAiMAX was added to the cells and incubated at 37° C. under an atmosphere containing 5% CO2. After 5 hours incubation, it was replaced with 10 mL of 10% FBS-containing RPMI-1640 medium containing no antibiotic.” for “gently.”
Western blot analysis of GST-π knockdown was carried out using cells harvested at above-mentioned each point of time after transfection with GST-π siRNA. […] The cell extract thus obtained was subjected to quantitative protein analysis using a Micro BCA Protein Assay Kit (Thermo SCIENTIFIC) (GST-π siRNA transfectant: 4.35 μg/μL, Scramble siRNA transfectant: 4.56 μg/μL). […] A reaction with a chemiluminescent substrate was then carried out at room temperature for 1 min., and then this chemiluminescence was detected using an X-ray film. Washing between operations was carried out three times by shaking for 5 min using PBS-T. Furthermore, after transfection with siRNA, plating on a 60 mm plastic tissue culture dish was carried out to give 1.0×10^5 cells/5 mL, and the total cell count in the dish was measured using a hemocytometer up to the 4th day.

[2] = tested on: RAS/Raf/MAPK signal cascade; test: Western blot of protein involved in RAS/Raf/MAPK signal cascade; conditions: M7609 cells
Description: A western blot analysis for the main protein involved in the RAS/Raf/MAPK signal cascade was carried out in the same way as for (3) above using cells harvested on the 2nd day after transfection with GST-π siRNA. As antibodies, in addition to anti-GST-π antibody, anti-p-Raf-1 (Ser338) antibody (MILLIPORE), anti-Raf-1 antibody (Santa Cruz), anti-p-MEK1/2 (Ser217/221) antibody (Cell Signaling), anti-MEK1/2 antibody (Cell Signaling), anti-p-ERK1/2 (Thr202/Tyr204) antibody (Cell Signaling), anti-ERK antibody (Cell Signaling), and anti-GAPDH antibody (Abcam) were used.

**Q.** Which results are given for “GST-π siRNA: GST-π siRNA (SEQ ID No: 1: GGGAGGCAAGACCUUCAUUTT, siRNA ID#2385, Ambion) (chemistry not given here)”?
**A.** expression of type II LC3 (LC3): markedly increased; proportion of autophagy-positive cells (spot-like LC3 signal per 500 cells) (M7609 cells): increased rapidly after treatment, peaked on 2nd day, and then decreased; number of cells [1]: markedly less; expression of GST-π (GST-π; 4 days after transfection (FIG. 1b)): still stably suppressed; expression of GST-π (GST-π; siRNA transfection, western blot (FIG. 1a)): suppressed; expression level of Raf protein ([2]; 2nd day after transfection (FIG. 2)): decreases; phosphorylation of proteins involved in the RAS/Raf/MAPK signal cascade ([2]; 2nd day after transfection, compared with Scramble siRNA (FIG. 2)): decreased
